How the values were obtained:
Format in all cases: cell-based
hNPY2R [1] = biological target: T1, hNPY2R (Homo sapiens, UniProt P49146); experiment: CaFlux Assay (FLIPR), Y2R; parameters: expressed in transfected cells; host or cells: HEK-293 stably expressing G protein chimera Gaqi9
T1 sequence (P49146 1-381): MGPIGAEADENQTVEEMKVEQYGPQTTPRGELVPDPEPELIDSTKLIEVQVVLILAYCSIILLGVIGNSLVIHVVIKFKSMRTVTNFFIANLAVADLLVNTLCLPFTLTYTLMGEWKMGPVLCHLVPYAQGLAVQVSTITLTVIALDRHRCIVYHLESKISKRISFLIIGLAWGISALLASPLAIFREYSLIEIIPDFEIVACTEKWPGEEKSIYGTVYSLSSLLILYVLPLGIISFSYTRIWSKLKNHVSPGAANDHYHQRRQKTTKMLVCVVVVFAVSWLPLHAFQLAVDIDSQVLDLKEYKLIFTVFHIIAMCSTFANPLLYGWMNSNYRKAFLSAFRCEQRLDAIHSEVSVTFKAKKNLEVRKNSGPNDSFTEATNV
Method: Hek-293 cells were stably transfected with the G protein chimera Gaqi9 and the hygromycin-B resistance gene were further transfected with the human NPY2 receptor and G418 antibiotic selection. Following selection in both hygromycin-B and G418, individual clones were assayed for their response to PYY. The transfected cells were cultured in DMEM medium supplemented with 10% fetal bovine serum, 50 μg/mL hygromycin-B 2 mM glutamine, 100 U/mL penicillin, 100 μg/mL streptomycin and 250 μg/mL G418. Cells are harvested with trypsin-EDTA and counted using ViaCount reagent. The cell suspension volume is adjusted to 4.8×10^5 cells/mL with complete growth media. Aliquots of 25 μL are dispensed into 384 well Poly-D Lysine coated black/clear microplates (Falcon) and the microplates were placed in a 37° C. CO2 incubator overnight. Loading Buffer (Calcium-3 Assay Kit, Molecular Devices) was prepared by dissolving the contents of one vial (Express Kit) into 1000 mL Hank's Balanced Salt Solution containing 20 mM HEPES and 5 mM probenecid. Aliquots of 25 μL of diluted dye were dispensed into the cell plates and the plates are then incubated for 1 hour at 37° C. During the incubation, test compounds were prepared at 3.5× the desired concentration in HBSS (20 mM HEPES)/0.05% BSA/1% DMSO and transferred to a 384 well plate for use on FLIPR. After incubation, both the cell and compound plates were brought to the FLIPR and 20 μL of the diluted compounds were transferred to the cell plates by the FLIPR. During the assay, fluorescence readings were taken simultaneously from all 384 wells of the cell plate every 1.5 seconds. Five readings were taken to establish a stable baseline, and then 20 μL of sample was rapidly (30 μL/sec) and simultaneously added to each well of the cell plate. The fluorescence was continuously monitored before, during and after sample addition for a total elapsed time of 100 seconds. Responses (increase in peak fluorescence) in each well following addition were determined. The initial fluorescence reading from each well, prior to ligand stimulation, was used as a zero baseline value for the data from that well. The responses are expressed as % of maximal response of the positive control.

Y1R = biological target: T2, Y1R (Homo sapiens, UniProt P25929); experiment: CaFlux Assay (FLIPR), Y1R
T2 sequence (P25929 1-384): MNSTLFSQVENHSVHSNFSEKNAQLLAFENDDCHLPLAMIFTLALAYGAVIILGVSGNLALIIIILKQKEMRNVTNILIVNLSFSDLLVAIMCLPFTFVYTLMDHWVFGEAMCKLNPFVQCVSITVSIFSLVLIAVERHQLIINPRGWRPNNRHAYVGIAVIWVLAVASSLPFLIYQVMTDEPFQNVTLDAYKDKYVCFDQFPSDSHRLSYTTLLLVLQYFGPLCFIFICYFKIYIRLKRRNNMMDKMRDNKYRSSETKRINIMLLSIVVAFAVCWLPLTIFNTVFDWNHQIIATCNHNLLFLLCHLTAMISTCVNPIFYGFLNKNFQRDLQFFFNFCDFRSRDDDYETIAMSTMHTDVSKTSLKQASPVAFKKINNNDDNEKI

Y4R = Y4R (Homo sapiens, UniProt P50391); experiment: CaFlux Assay (FLIPR), Y4R
Y5R = biological target: T3, Y5R (Homo sapiens, UniProt Q15761); experiment: CaFlux Assay (FLIPR), Y5R;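 as to Emax: percent of the maximal response of the positive control agonist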
T3 sequence (Q15761 1-445): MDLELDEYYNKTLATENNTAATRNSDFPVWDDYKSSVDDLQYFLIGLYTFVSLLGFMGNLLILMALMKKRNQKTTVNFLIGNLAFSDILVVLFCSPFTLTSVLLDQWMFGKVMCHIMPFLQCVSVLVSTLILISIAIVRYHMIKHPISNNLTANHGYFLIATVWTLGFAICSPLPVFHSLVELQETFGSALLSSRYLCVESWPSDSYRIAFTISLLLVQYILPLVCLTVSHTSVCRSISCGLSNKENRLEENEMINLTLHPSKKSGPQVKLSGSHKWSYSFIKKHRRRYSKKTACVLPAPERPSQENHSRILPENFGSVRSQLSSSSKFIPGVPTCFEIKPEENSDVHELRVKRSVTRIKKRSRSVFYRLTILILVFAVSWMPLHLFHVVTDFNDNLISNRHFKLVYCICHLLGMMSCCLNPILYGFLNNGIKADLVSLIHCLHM

hNPY2R [2] = biological target: T1, hNPY2R; experiment: cAMP Agonist Assay, HEK293/hNPY2R cells; parameters: expressed in transfected cells; host or cells: HEK293/hNPY2R (G418 selection)

Chain of Y4R (P50391 whole entry): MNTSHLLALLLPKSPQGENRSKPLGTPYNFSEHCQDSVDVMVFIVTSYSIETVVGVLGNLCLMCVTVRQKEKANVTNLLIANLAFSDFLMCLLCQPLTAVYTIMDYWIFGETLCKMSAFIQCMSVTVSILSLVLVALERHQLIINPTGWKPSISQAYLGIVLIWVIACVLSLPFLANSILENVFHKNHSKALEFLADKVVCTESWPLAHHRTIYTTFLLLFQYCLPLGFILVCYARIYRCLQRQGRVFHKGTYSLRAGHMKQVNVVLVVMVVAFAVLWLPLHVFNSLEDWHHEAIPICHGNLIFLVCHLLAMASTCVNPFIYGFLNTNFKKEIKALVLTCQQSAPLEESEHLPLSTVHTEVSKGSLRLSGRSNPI

CCCC(=O)NCCCC[C@H](NC(=O)[C@@H](NC(C)=O)[C@@H](C)CC)C(=O)N1CCN(c2ccc3ncn(CC(=O)N[C@@H](CCCNC(=N)N)C(=O)N[C@@H](Cc4c[nH]cn4)C(=O)N[C@@H](Cc4ccc(O)cc4)C(=O)N[C@@H](CC(C)C)C(=O)N[C@@H](CC(N)=O)C(=O)N[C@@H](Cc4c[nH]c5ccccc45)C(=O)N[C@H](C(=O)N[C@H](C(=O)N[C@@H](CCCNC(=N)N)C(=O)N[C@@H](CCC(N)=O)C(=O)N(C)[C@@H](CCCNC(=N)N)C(=O)N[C@@H](Cc4ccc(O)cc4)C(N)=O)[C@@H](C)O)C(C)C)c(=O)c3c2)CC1 [Example 5]
EC50 (hNPY2R [1]): 0.18 nM | EC50 (Y1R): > 5000 nM | EC50 (Y4R): 31600 nM | EC50 (Y5R): 24900 nM | EC50 (hNPY2R [2]): 0.39 nM

CCCCCCCC(=O)NCCCC[C@H](NC(=O)[C@@H](NC(C)=O)[C@@H](C)CC)C(=O)N1CCN(c2ccc3ncn(CC(=O)N[C@@H](CCCNC(=N)N)C(=O)N[C@@H](Cc4c[nH]cn4)C(=O)N[C@@H](Cc4ccc(O)cc4)C(=O)N[C@@H](CC(C)C)C(=O)N[C@@H](CC(N)=O)C(=O)N[C@@H](Cc4c[nH]c5ccccc45)C(=O)N[C@H](C(=O)N[C@H](C(=O)N[C@@H](CCCNC(=N)N)C(=O)N[C@@H](CCC(N)=O)C(=O)N(C)[C@@H](CCCNC(=N)N)C(=O)N[C@@H](Cc4ccc(O)cc4)C(N)=O)[C@@H](C)O)C(C)C)c(=O)c3c2)CC1 [Example 6]
EC50 (hNPY2R [1]): 1.45 nM | EC50 (Y1R): 5200 nM | EC50 (Y4R): 2470 nM | EC50 (Y5R): 99900 nM | EC50 (hNPY2R [2]): 1.7 nM

CCCCCCCCCCCC(=O)NCCCC[C@H](NC(=O)[C@@H](NC(C)=O)[C@@H](C)CC)C(=O)N1CCN(c2ccc3ncn(CC(=O)N[C@@H](CCCNC(=N)N)C(=O)N[C@@H](Cc4c[nH]cn4)C(=O)N[C@@H](Cc4ccc(O)cc4)C(=O)N[C@@H](CC(C)C)C(=O)N[C@@H](CC(N)=O)C(=O)N[C@@H](Cc4c[nH]c5ccccc45)C(=O)N[C@H](C(=O)N[C@H](C(=O)N[C@@H](CCCNC(=N)N)C(=O)N[C@@H](CCC(N)=O)C(=O)N(C)[C@@H](CCCNC(=N)N)C(=O)N[C@@H](Cc4ccc(O)cc4)C(N)=O)[C@@H](C)O)C(C)C)c(=O)c3c2)CC1 [Example 7]
EC50 (hNPY2R [1]): 4.7 nM | EC50 (Y1R): 6430 nM | EC50 (Y4R): 14500 nM | EC50 (Y5R): 12800 nM | EC50 (hNPY2R [2]): 5.4 nM

CCCCCCCCCCCC(=O)NCCCCCC(=O)NCCCC[C@H](NC(=O)[C@@H](N)[C@@H](C)CC)C(=O)N1CCN(c2ccc3ncn(CC(=O)N[C@@H](CCCNC(=N)N)C(=O)N[C@@H](Cc4c[nH]cn4)C(=O)N[C@@H](Cc4ccc(O)cc4)C(=O)N[C@@H](CC(C)C)C(=O)N[C@@H](CC(N)=O)C(=O)N[C@@H](Cc4c[nH]c5ccccc45)C(=O)N[C@H](C(=O)N[C@H](C(=O)N[C@@H](CCCNC(=N)N)C(=O)N[C@@H](CCC(N)=O)C(=O)N(C)[C@@H](CCCNC(=N)N)C(=O)N[C@@H](Cc4ccc(O)cc4)C(N)=O)[C@@H](C)O)C(C)C)c(=O)c3c2)CC1 [Example 9]
EC50 (hNPY2R [1]): 0.031 nM | EC50 (Y1R): > 5000 nM | EC50 (Y4R): 2450 nM | EC50 (Y5R): 3790 nM | EC50 (hNPY2R [2]): 3.5 nM

CCCCCCCCCCCC(=O)NCCC(=O)NCCCC[C@H](NC(=O)[C@@H](N)[C@@H](C)CC)C(=O)N1CCN(c2ccc3ncn(CC(=O)N[C@@H](CCCNC(=N)N)C(=O)N[C@@H](Cc4c[nH]cn4)C(=O)N[C@@H](Cc4ccc(O)cc4)C(=O)N[C@@H](CC(C)C)C(=O)N[C@@H](CC(N)=O)C(=O)N[C@@H](Cc4c[nH]c5ccccc45)C(=O)N[C@H](C(=O)N[C@H](C(=O)N[C@@H](CCCNC(=N)N)C(=O)N[C@@H](CCC(N)=O)C(=O)N(C)[C@@H](CCCNC(=N)N)C(=O)N[C@@H](Cc4ccc(O)cc4)C(N)=O)[C@@H](C)O)C(C)C)c(=O)c3c2)CC1 [Example 10]
EC50 (hNPY2R [1]): 0.016 nM | EC50 (Y1R): > 5000 nM | EC50 (Y4R): 3510 nM | EC50 (Y5R): 4740 nM | EC50 (hNPY2R [2]): 5.2 nM

CCCCCCCCCCCC(=O)N[C@@H](CCC(=O)O)C(=O)NCCCC[C@H](NC(=O)[C@@H](N)[C@@H](C)CC)C(=O)N1CCN(c2ccc3ncn(CC(=O)N[C@@H](CCCNC(=N)N)C(=O)N[C@@H](Cc4c[nH]cn4)C(=O)N[C@@H](Cc4ccc(O)cc4)C(=O)N[C@@H](CC(C)C)C(=O)N[C@@H](CC(N)=O)C(=O)N[C@@H](Cc4c[nH]c5ccccc45)C(=O)N[C@H](C(=O)N[C@H](C(=O)N[C@@H](CCCNC(=N)N)C(=O)N[C@@H](CCC(N)=O)C(=O)N(C)[C@@H](CCCNC(=N)N)C(=O)N[C@@H](Cc4ccc(O)cc4)C(N)=O)[C@@H](C)O)C(C)C)c(=O)c3c2)CC1 [Example 11]
EC50 (hNPY2R [1]): 0.026 nM | EC50 (Y1R): > 5000 nM | EC50 (Y4R): 2430 nM | EC50 (Y5R): 3550 nM | EC50 (hNPY2R [2]): 3.6 nM

CCCCCCCCCCCCCCCC(=O)NCCCC[C@H](NC(=O)[C@@H](NC(C)=O)[C@@H](C)CC)C(=O)N1CCN(c2ccc3ncn(CC(=O)N[C@@H](CCCNC(=N)N)C(=O)N[C@@H](Cc4c[nH]cn4)C(=O)N[C@@H](Cc4ccc(O)cc4)C(=O)N[C@@H](CC(C)C)C(=O)N[C@@H](CC(N)=O)C(=O)N[C@@H](Cc4c[nH]c5ccccc45)C(=O)N[C@H](C(=O)N[C@H](C(=O)N[C@@H](CCCNC(=N)N)C(=O)N[C@@H](CCC(N)=O)C(=O)N(C)[C@@H](CCCNC(=N)N)C(=O)N[C@@H](Cc4ccc(O)cc4)C(N)=O)[C@@H](C)O)C(C)C)c(=O)c3c2)CC1 [Example 13]
EC50 (hNPY2R [1]): 1.31 nM | EC50 (Y1R): 29200 nM | EC50 (Y4R): 32200 nM | EC50 (Y5R): 9380 nM | EC50 (hNPY2R [2]): 1.2 nM

CCCCCCCCCCCCCCCC(=O)NCCCC[C@H](NC(=O)[C@@H](N)[C@@H](C)CC)C(=O)N1CCN(c2ccc3ncn(CC(=O)N[C@@H](CCCNC(=N)N)C(=O)N[C@@H](Cc4c[nH]cn4)C(=O)N[C@@H](Cc4ccc(O)cc4)C(=O)N[C@@H](CC(C)C)C(=O)N[C@@H](CC(N)=O)C(=O)N[C@@H](Cc4c[nH]c5ccccc45)C(=O)N[C@H](C(=O)N[C@H](C(=O)N[C@@H](CCCNC(=N)N)C(=O)N[C@@H](CCC(N)=O)C(=O)N(C)[C@@H](CCCNC(=N)N)C(=O)N[C@@H](Cc4ccc(O)cc4)C(N)=O)[C@@H](C)O)C(C)C)c(=O)c3c2)CC1 [Example 14]
EC50 (hNPY2R [1]): 0.73 nM | EC50 (Y1R): > 5000 nM | EC50 (Y4R): > 5000 nM | EC50 (Y5R): 12700 nM | EC50 (hNPY2R [2]): 1 nM

CCCCCCCCCCCCCCCC(=O)N[C@H](C(=O)N[C@@H](CCCCN)C(=O)N1CCN(c2ccc3ncn(CC(=O)N[C@@H](CCCNC(=N)N)C(=O)N[C@@H](Cc4c[nH]cn4)C(=O)N[C@@H](Cc4ccc(O)cc4)C(=O)N[C@@H](CC(C)C)C(=O)N[C@@H](CC(N)=O)C(=O)N[C@@H](Cc4c[nH]c5ccccc45)C(=O)N[C@H](C(=O)N[C@H](C(=O)N[C@@H](CCCNC(=N)N)C(=O)N[C@@H](CCC(N)=O)C(=O)N(C)[C@@H](CCCNC(=N)N)C(=O)N[C@@H](Cc4ccc(O)cc4)C(N)=O)[C@@H](C)O)C(C)C)c(=O)c3c2)CC1)[C@@H](C)CC [Example 15]
EC50 (hNPY2R [1]): 1.03 nM | EC50 (Y1R): > 5000 nM | EC50 (Y4R): 1360 nM | EC50 (Y5R): > 5000 nM | EC50 (hNPY2R [2]): 0.97 nM

CCCCCCCCCCCCCCCC(=O)NCCC(=O)N[C@@H](CCC(=O)O)C(=O)NCCCC[C@H](NC(=O)[C@@H](N)[C@@H](C)CC)C(=O)N1CCN(c2ccc3ncn(CC(=O)N[C@@H](CCCNC(=N)N)C(=O)N[C@@H](Cc4c[nH]cn4)C(=O)N[C@@H](Cc4ccc(O)cc4)C(=O)N[C@@H](CC(C)C)C(=O)N[C@@H](CC(N)=O)C(=O)N[C@@H](Cc4c[nH]c5ccccc45)C(=O)N[C@H](C(=O)N[C@H](C(=O)N[C@@H](CCCNC(=N)N)C(=O)N[C@@H](CCC(N)=O)C(=O)N(C)[C@@H](CCCNC(=N)N)C(=O)N[C@@H](Cc4ccc(O)cc4)C(N)=O)[C@@H](C)O)C(C)C)c(=O)c3c2)CC1 [Example 22]
Emax (Y5R; read-out: Y5R FLIPR, percentage in parentheses under the EC50): 70%

Reference: patent US20100179093A1, “Neoropeptide-2-Receptor (Y-2R) Agonists” (priority 2008, published 2010)
